Patent US8937167B2 (Washington University, priority 2009, dated 2015)
“Also recorded” adds a separate entry of the source.

Key:
UTI89 = test: Enumeration of bladder IBCs by LacZ staining in infected mice; assay type: in vivo, E. coli (UPEC); host C3H/HeN mouse; settings: UTI89 pre-incubated with mannoside (as little as 10 μM); 6 hpi
Experimental: After invasion, UPEC are able to rapidly replicate to form IBCs, thus dramatically expanding in numbers. After maturation of the IBC, bacteria are able to disperse from the biomass and spread to neighboring cells to expand the buildup in bacterial numbers via next generation IBC. The ability of mannosides to block IBC formation was evaluated based on LacZ staining of whole mount bladders, a protocol developed to enumerate IBCs. Whole bladder titers were also determined by quantifying colony forming units (CFUs) at 6 hours post-infection and later time points as test compounds were further developed.
(§1) Enumeration of bladder IBCs. For bacterial pretreatment experiments, mannoside was added to the bacterial suspension and incubated for 20 min. For animal pretreatment experiments, mannoside ZFH-2056 was administered either IP (5 mg/kg) or orally (100 mg/kg) 30 min prior to inoculation with UTI89. To accurately count the number of IBCs, mice were sacrificed 6 hpi and bladders were aseptically removed, bisected, splayed on silicone plates and fixed in 2% paraformaldehyde (v/v). IBCs, readily discernable as punctate violet spots, were quantified by LacZ staining of whole bladders.
as §1, with “For” for “Enumeration of bladder IBCs. For bacterial pretreatment experiments, mannoside was added to the bacterial suspension and incubated for 20 min. For”

PBC-1 = test: Growth curve / MIC determination in LB; assay type: cell-based, E. coli (UPEC); settings: 100 μM mannoside, varying TMP-SMZ
Experimental: Growth curve. […] Mannoside ZFH-2056 was added at 100 μM. Growth curves were performed in a 96-well plate at 37° C. with A600 readings taken every 30 min for 8 h.
Mannoside 6 was added at 100 μM. Growth curves were performed in a 96-well plate at 37° C. with A600 readings taken every 30 min for 8 h. Minimum inhibitory concentration (MIC) was calculated as the lowest concentration of antibiotic that prevented growth of the bacterial strain.

[1] = assay type: in vitro ADME; settings: 64800 sec, […], pH 7.4
Experimental: Materials. The assay was carried out using Multiscreen PVDF 96-well plates (Millipore, Billerica, Mass.) using the company's Transporter Receiver Plate. The lipid (dioleyoylphosphotidylcholine (DOPC):Stearic Acid (80:20, wt %) in dodecane was obtained from Avanti Polar lipids (Alabaster, Ala.). Hank's Buffered Salt Solution (HBSS), pH 7.4 was obtained from MediaTech (Manassas, Va.).
Methods. Each of the test compounds was diluted to 2.5 mM in DMSO (Sigma, St Louis, Mo.) and further diluted prior to testing to 2.5 μM in HBSS, pH 7.4. The assay was performed using a Millipore 96-well Multiscreen-IP PAMPA plate, 5 μl of the lipid suspension was directly added to the PVDF membrane of the filter plate. Immediately following the addition of the lipid to the membrane, 200 μl of HBSS solution containing the test compound was added to the donor (upper) chamber. HBSS (300 μl) is also added to the receiver plate and the filter and receiver plates assembled and incubated overnight at room temperature in a moistened sealed bag to prevent evaporation. The concentration in the receiver plate as well as an equilibrium plate, that represents a theoretical, partition-free sample, was determined by HPLC-tandem mass spectrometry. Analysis of each compound was performed in triplicate.
Analysis. Analysis of both the acceptor and equilibrium samples were performed using an AB 3200 triple quadripole mass spectrometer linked to a Shimadzu DGU-20A HPLC with a Prevail C18 column (3 μm, 2.1×10 mm) with a flow rate of 0.35 ml/min. The mobile phase used was A: 0.1% Formic Acid in water, B: 0.1% Formic Acid in methanol. The elation gradient method is described in the table. Data acquisition and peak height determination was performed using Analyst v.1.4.2.
Calculations. The login of the effective permeability (LogPe) was calculated using the following equation
[formula] [formula] Where the drug concentration is the peak areas for the analyte and VD and VA is the volume of the donor and acceptor compartment respectively. The area is the surface area of the PVDF membrane (0.11 cm^2) and time is the incubation in seconds (64,800 sec). Each value is the mean of triplicates performed on the same day.

Structure (SMILES)	IBC formation (UTI89)	effect on efficacy of TMP-SMZ killing in vitro (PBC-1)	PAMPA (LogPe) [1]
CNC(=O)c1cc(C(=O)NC)cc(-c2ccc(O[C@H]3O[C@H](CO)[C@@H](O)[C@H](O)[C@@H]3O)cc2)c1 [ZFH-2056]	most significant reduction in IBCs; also recorded: reduced IBC formation	not found to increase the efficacy of TMP-SMZ killing	
COC(=O)c1cccc(-c2ccc(O[C@H]3O[C@H](CO)[C@@H](O)[C@H](O)[C@@H]3O)cc2)c1 [Compound 1, phenyl mannoside, reference compound]			−5.42
